From patent US20240067651A1 (Biohaven Therapeutics Ltd., priority 2019, published 2024)

Key:
[1] = Caco-2 Permeability Assay; format: in vitro ADME, human; conditions: human
Method in brief: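 Bidirectional transport at 37 °C for 90 min, 10 μM donor concentration, with or without Pgp inhibitor, across 21-day Caco-2 monolayers with TEER >600 […] in HEPES-buffered HBSS, pH 7.4. LC-MS/MS of donor and receiver samples gives Papp, B→A/A→B efflux ratio and mass recovery.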

[2] = Stability in Simulated Gastric Fluid (SGF); format: in vitro ADME; design: key: % parent compound remaining relative to 0-minute sample
Method in brief: (§1)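 Each compound is spiked to a final 2 μg/mL into SGF with pepsin (pH 1.2) and into SIF with pancreatin (pH 6.8). Samples shake at 37° C, aliquots are taken between 0 and 60 minutes, precipitated with acetonitrile and analysed by LC-MS/MS. Degradation half-life is derived from the natural-log plot where time points allow.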

[3] = Plasma Stability; format: in vitro ADME, human
Method in brief: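 Parent compound quantified by LC-MS/MS after acetonitrile precipitation, reported as percent of control remaining (triplicate). Incubation: 1 hour, 37° C, fresh human plasma, compound at 1 μM.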

[4] = Stability in Simulated Intestinal Fluid (SIF); format: in vitro ADME; design: key: % parent compound remaining relative to 0-minute sample
Method in brief: as §1

[5] = Caco-2, pH 7.4, Caco-2 monolayer
[6] = % remaining at 1 h in simulated gastric fluid
[7] = % remaining at 1 h in human plasma
[8] = % remaining at 1 h in simulated intestinal fluid
[9] = Caco-2, pH 7.4, Caco-2 monolayer, the 17th table
[10] = % remaining at 1 h in simulated gastric fluid, the 17th table
[11] = % remaining at 1 h in human plasma, the 17th table
[12] = % remaining at 1 h in simulated intestinal fluid, the 17th table
[13] = bare number, unit or time not given

CC(C)OCCn1c(SCOC(=O)CCCOC(=O)[C@H](N)Cc2ccccc2)nc(=O)c2c1ccn2COC(=O)CCCOC(=O)[C@H](N)Cc1ccccc1.O=C(O)C(F)(F)F.O=C(O)C(F)(F)F [Example 364, bis(trifluoroacetic acid) [(5-{[(4-{[(2R)-2-amino-3-phenylpropanoyl]oxy}butanoyl)oxy]methyl}-4-oxo-1-[2-(propan-2-yloxy)ethyl]-1H,4H,5H-pyrrolo[3,2-d]pyrimidin-2-yl)sulfanyl]methyl 4-{[(2R)-2-amino-3-phenylpropanoyl]oxy}butanoate]
Papp at 90 min, 10 µM [1, 5]: 0.277 ×10⁻⁶ cm/s | SGF ([2]; simulated gastric fluid, remaining at 1 h): 47% remaining | human Plasma stability ([3]; human plasma, remaining at 1 h): 31% remaining | SIF ([4]; simulated intestinal fluid, remaining at 1 h): 1% remaining

CNCC(=O)NCCC(=O)OCn1ccc2c1c(=O)[nH]c(=S)n2CCOC(C)C.O=C(O)C(F)(F)F [Example 56]
Papp at 90 min, 10 µM [1, 5]: 0.144 ×10⁻⁶ cm/s | SGF [2, 6]: 64% remaining | human Plasma stability [3, 7]: 0% remaining | SIF [4, 8]: 1% remaining

CC(C)OCCn1c(=S)[nH]c(=O)c2c1ccn2COC(=O)[C@@H]1CCC(=O)N1C(=O)OCc1ccccc1 [Example 4, 1-benzyl 2-{4-oxo-1-[2-(propan-2-yloxy)ethyl]-2-sulfanylidene-1H,2H,3H,4H,5H-pyrrolo[3,2-d]pyrimidin-5-yl}methyl (2S)-5-oxopyrrolidine-1,2-dicarboxylate]
Papp at 90 min, 10 µM ([1]; Caco-2, pH 7.4, donor 10 μM, 90 minutes, 37° C., direction not given): 13.4 ×10⁻⁶ cm/s | SGF ([2]; % remaining at 1 h, SGF with pepsin pH 1.2, 2 μg/mL, 37° C.): 97% | human Plasma stability ([3]; % remaining at 1 h, human plasma, 1 μM, 37° C.): 40% | SIF ([4]; % remaining at 1 h, SIF with pancreatin pH 6.8, 2 μg/mL, 37° C.): 94%

CC(C)OCCn1c(SCOC(=O)N(C)c2ccccc2Cl)nc(=O)c2[nH]ccc21 [Example 240]
Papp at 90 min, 10 µM [1, 5]: 15.4 ×10⁻⁶ cm/s | SGF ([2]; simulated gastric fluid, at 1 h): 99% remaining | human Plasma stability ([3]; human plasma, at 1 h): 83% remaining | SIF ([4]; simulated intestinal fluid, at 1 h): 97% remaining

CCCCCOC(=O)OCn1ccc2c1c(=O)nc(S)n2CCOC(C)C [Example 216]
Papp at 90 min, 10 µM [1, 9]: 4.59 ×10⁻⁶ cm/s | SGF [2, 10]: 91% remaining | human Plasma stability [3, 11]: 1% remaining | SIF [4, 12]: 1% remaining

CC(C)OCCn1c(=S)[nH]c(=O)c2c1ccn2COC(=O)CCCCNC(=O)[C@@H](N)CO.O=C(O)C(F)(F)F [Example 43]
Papp at 90 min, 10 µM [1, 5]: 0.147 ×10⁻⁶ cm/s | SGF [2, 6]: 92% remaining | human Plasma stability [3, 7]: 16% remaining | SIF [4, 8]: 87% remaining

CC(=O)OCc1ccccc1N(C)C(=O)OCn1ccc2c1c(=O)nc(S)n2CCOC(C)C [Example 222]
Papp at 90 min, 10 µM [1, 9]: 2.05 ×10⁻⁶ cm/s | SGF [2, 10]: 98% remaining | human Plasma stability [3, 11]: 22% remaining | SIF [4, 12]: 88% remaining

CCCCCCOC(=O)OCn1ccc2c1c(=O)nc(S)n2CCOC(C)C [Example 213]
Papp at 90 min, 10 µM [1, 9]: 3.03 ×10⁻⁶ cm/s | SGF [2, 10]: 76% remaining | human Plasma stability [3, 11]: 44% remaining | SIF [4, 12]: 1% remaining

CC(C)OCCn1c(=S)[nH]c(=O)c2c1ccn2COC(=O)CCCCOC(=O)[C@@H](N)Cc1ccccc1.O=C(O)C(F)(F)F [Example 340, trifluoroacetic acid {4-oxo-1-[2-(propan-2-yloxy)ethyl]-2-sulfanylidene-1H,2H,3H,4H,5H-pyrrolo[3,2-d]pyrimidin-5-yl}methyl 5-{[(2S)-2-amino-3-phenylpropanoyl]oxy}pentanoate]
Papp at 90 min, 10 µM ([1]; Caco-2, pH 7.4): 0.644 ×10⁻⁶ cm/s | SGF [2, 13]: 100 | human Plasma stability ([3]; % remaining @ 1 h): 4% remaining | SIF [4, 13]: 99

CC(C)OCCn1c(=S)[nH]c(=O)c2c1ccn2COC(=O)c1ccccc1.O=C(O)C(F)(F)F [Example 157]
Papp at 90 min, 10 µM [1, 5]: 7.3 ×10⁻⁶ cm/s | SGF ([2]; % @ 1 h (remaining) in simulated gastric fluid): 96% @ 1 h | human Plasma stability ([3]; % @ 1 h (remaining) in human plasma): 0% @ 1 h | SIF ([4]; % @ 1 h (remaining) in simulated intestinal fluid): 20% @ 1 h

CC(C)OCCn1c(=S)n(COC(=O)[C@@H](C)N)c(=O)c2c1ccn2COC(=O)[C@@H](C)N.O=C(O)C(F)(F)F.O=C(O)C(F)(F)F [Example 293, bis(trifluoroacetic acid) [3-({[(2R)-2-aminopropanoyl]oxy}methyl)-4-oxo-1-[2-(propan-2-yloxy)ethyl]-2-sulfanylidene-1H,2H,3H,4H,5H-pyrrolo[3,2-d]pyrimidin-5-yl]methyl (2R)-2-aminopropanoate]
Papp at 90 min, 10 µM ([1]; Caco-2, pH 7.4): < 1.06 ×10⁻⁶ cm/s | SGF ([2]; % remaining @ 1 h): 100% @ 1 h | human Plasma stability ([3]; % remaining @ 1 h): 25% @ 1 h | SIF ([4]; % remaining @ 1 h): 29% @ 1 h
